One block for each compound: values may come before it.
Legend:
[1] = test system: human polymorphonuclear (PMN) cells; assay: ROS formation by inflammatory PMN cells (H2O2-triggered, DCF-DA, flow cytometry); type: cell-based; settings: for effect on ROS formation by PMN cells (anti-/pro-inflammatory), in words: H2O2-triggered ROS
From the text: In measuring the effect on free radical formation by inflammatory cells, human polymorphonuclear (PMN) cells were used for testing effects of a product on ROS formation. PMN cells constitute approximately 70% of the white blood cells in humans. PMN cells produce high amounts of ROS upon certain inflammatory stimuli. Natural products may affect PMN cell ROS formation by three different mechanisms: 1. […] Triggering an anti-inflammatory cellular signal, leading to reduced ROS formation; 3. Triggering an immune reaction, leading to enhanced ROS formation. The effects of test products were measured by exposing freshly purified human PMN cells to the test products. During the incubation with a test product, any antioxidant compounds able to cross the cell membrane can enter the interior of the PMN cells, and compounds that trigger a signaling event can do so. Then the cells are washed, loaded with the DCF-DA dye, which turns fluorescent upon exposure to ROS. Formation of ROS is triggered by addition of H2O2. The fluorescence intensity of the PMN cells is evaluated by flow cytometry. The low fluorescence intensity of untreated control cells serves as a baseline and PMN cells treated with H2O2 alone serve as a positive control. […] The testing was performed on cells from a healthy donor. […]

[2] = Total antioxidant capacity, Folin-Ciocalteu assay (total phenolics assay); settings: for Total antioxidant capacity: Folin-Ciocalteu, gallic acid reference
Experimental: Total antioxidant capacity was tested in the Folin-Ciocalteu assay (also known as the total phenolics assay). This assay makes use of the Folin-Ciocalteu reagent to measure antioxidants. The assay is performed by adding the Folin-Ciocalteu's phenol reagent to serial dilutions of extract, thoroughly mixing, and incubating for 5 minutes. Sodium carbonate is added, starting a chemical reaction producing a color. The reaction is allowed to continue for 30 minutes at 37° C. Optical absorbance is measured at 765 nm in a colorimetric plate reader. Gallic acid is used as a reference standard, and the data reported in Gallic Acid Equivalents per gram product.

human RBC = assay: Cellular antioxidant protection, CAP-e bioassay; type: cell-based; settings: for Cellular antioxidant Protection (CAP-e value): human RBC, AAPH oxidation
Experimental: Cell-based antioxidant protection was measured via a CAP-e bioassay. […] The CAP-e bioassay was specifically designed to work with natural products and ingredients. The red blood cell (RBC) was used as the model cell type as it is an inert cell type, in contrast to other cell types such as PMN cells. The red blood cell-based assay was developed particularly to be able to assess antioxidants from complex natural products in a cell-based system, as well as help interpret subsequent data from more complex cellular models. Freshly purified human RBC are washed repeatedly in physiological saline, and then exposed to the test products. During the incubation with a test product, any antioxidant compounds able to cross the cell membrane can enter the interior of the RBC. Then the RBC are washed to remove compounds that were not absorbed by the cells, and loaded with the DCF-DA dye, which turns fluorescent upon exposure to reactive oxygen species (ROS). Oxidation is triggered by addition of the peroxyl free radical generator AAPH. The fluorescence intensity is evaluated. The low fluorescence intensity of untreated control cells serves as a baseline, and RBC treated with AAPH alone serve as a positive control for maximum oxidative damage. […] Based on the low fluorescence of the untreated control wells, and the high fluorescence of the cell cultures exposed to oxidative damage, the fluorescence intensity in cell cultures treated with test products prior to exposure to oxidative stress is used to calculate the percent inhibition of cellular oxidative stress.

Compound: CC1=C(/C=C/C(C)=C/C=C/C(C)=C/C=C/C=C(C)/C=C/C=C(C)/C=C/C2=C(C)C(=O)[C@@H](O)CC2(C)C)C(C)(C)C[C@H](O)C1=O [Astaxanthin]
effect on ROS formation by PMN cells (anti-/pro-inflammatory), in words [1]: less anti-inflammatory capacity than the SOLARPLAST® post-aqueous fraction
Total antioxidant capacity [2]: 2 mg GAE per gram

Cell lysing (human RBC; highest concentration tested): Cell lysing occurred
Compound: N[C@@H](CCC(=O)N[C@@H](CS)C(=O)NCC(=O)O)C(=O)O [L-glutathione, reduced]
cellular antioxidant protection, comparison in words (human RBC): had more antioxidant capacity than SOLARPLAST®
Cellular antioxidant Protection (CAP-e value) (human RBC): 619 μM GA/gram
effect on ROS formation by PMN cells (anti-/pro-inflammatory), in words [1]: less anti-inflammatory capacity than the SOLARPLAST® post-aqueous fraction
effect on ROS formation by PMN cells at the highest/higher doses ([1]; highest or higher doses): robust increase in ROS formation
total antioxidant capacity, comparison in words [2]: had more antioxidant capacity than SOLARPLAST®
Total antioxidant capacity [2]: 153 mg GAE per gram

Compound: Oc1ccc(C=Cc2cc(O)cc(O)c2)cc1 [Resveratrol]
cellular antioxidant protection, comparison in words (human RBC): had more antioxidant capacity than SOLARPLAST®
Cellular antioxidant Protection (CAP-e value) (human RBC): 235 μM GA/gram
effect on ROS formation by PMN cells (anti-/pro-inflammatory), in words [1]: considerably more anti-inflammatory capabilities than any of the fractions of SOLARPLAST®
